# What was measured:
# Assay in all cases: NanoBRET CELLinib128
# Type in all cases: binding
# SIK3 = target: T1, SIK3 (Homo sapiens, UniProt Q9Y2K2); conditions: 1 µM; 100% no effect, 0% complete tracer displacement
# T1 construct: Full-length kinase ORF (Promega, Madison, WI, USA) cloned in frame with a NanoLuc-vector was transfected into HEK293T cells; host or cells: HEK293T
# Experimental: (§1) To get an impression about the binding strength of the PROTAC MA191 and the reference inhibitor MA68 to other kinases besides FLT3-ITD the binding on a kinase panel of further 128 representative protein kinases at 1 μM concentration was tested using the NanoBRET^TM cellular target engagement assay (CELLinib128 assay, CELLinib GmbH, Frankfurt, Germany). […] In none of the 128 kinases MA191 was able to displace the tracer (inhibitor) used by more than 50%, Table S1, Supplementary Information).
# (§2) The CELLinib128 assay was performed by CELLinib GmbH, Frankfurt (Germany) as described previously. In brief: Full-length kinase ORF (Promega, Madison, WI, USA) cloned in frame with a NanoLuc-vector was transfected into HEK293T cells in Opti-MEM without phenol red (Life Technologies, Carlsbad, CA, USA) at a density of 2 × 10^5 cells/mL using FuGENE HD (Promega, E2312) and proteins were allowed to express for 20 h. For CDKs, where indicated below, an excess of an activator without an NLuc-fusion was cotransfected. […] The system was allowed to equilibrate at 37 °C for 2 h and 5% CO2 prior to BRET measurements. For PKCs, a chemical activator PMA was added in a final concentration of 1 µM was added together with test compounds and tracers (Promega, V1171). To measure BRET, NanoBRET^TM NanoGlo substrate + extracellular NanoLuc inhibitor (Promega, N2160) were added as per the manufacturer’s protocol, and filtered luminescence was measured (450 nm BP filter (donor) and 610 nm LP filter (acceptor)). For the 1-shot test compounds, data were normalized to the tracer control and the background control or control compound plateau and an average and SD were calculated. […] For the control compounds competitive displacement data were normalized to the tracer Ctrl and the background Ctrl and then plotted and fitted using GraphPad Prism 10 software using a normalized 3-parameter curve fit with the following equation: Y = 100/(1 + 10^X−LogIC50).
# MAP4K1 = target: T2, MAP4K1 (Homo sapiens, UniProt Q92918); conditions: 100% no effect, 0% complete tracer displacement, read-out: Tracer bound
# T2 construct: Full-length kinase ORF (Promega, Madison, WI, USA) cloned in frame with a NanoLuc-vector was transfected into HEK293T cells; host or cells: HEK293T
# Experimental: as §1, §2
# TNK1 = target: T3, TNK1 (Homo sapiens, UniProt Q13470); conditions: 100% no effect, 0% complete tracer displacement, read-out: Tracer bound
# T3 construct: Full-length kinase ORF (Promega, Madison, WI, USA) cloned in frame with a NanoLuc-vector; host or cells: HEK293T
# Experimental: as §1, §2
# PLK4 = target: T4, PLK4 (Homo sapiens, UniProt O00444); conditions: 100% no effect, 0% complete tracer displacement, read-out: Tracer bound
# T4 construct: Full-length kinase ORF (Promega, Madison, WI, USA) cloned in frame with a NanoLuc-vector was transfected into HEK293T cells; host or cells: HEK293T
# Experimental: as §1, §2
# FGFR1 = target: T5, FGFR1 (Homo sapiens, UniProt P11362); conditions: 100% no effect, 0% complete tracer displacement, read-out: Tracer bound
# T5 construct: Full-length kinase ORF (Promega, Madison, WI, USA) cloned in frame with a NanoLuc-vector was transfected into HEK293T cells; host or cells: HEK293T
# Experimental: as §1, §2
# PAK6 = target: T6, PAK6 (Homo sapiens, UniProt Q9NQU5); conditions: 100% no effect, 0% complete tracer displacement, read-out: Tracer bound
# T6 construct: Full-length kinase ORF (Promega, Madison, WI, USA) cloned in frame with a NanoLuc-vector was transfected into HEK293T cells; host or cells: HEK293T
# T6 sequence (Q9NQU5 whole entry): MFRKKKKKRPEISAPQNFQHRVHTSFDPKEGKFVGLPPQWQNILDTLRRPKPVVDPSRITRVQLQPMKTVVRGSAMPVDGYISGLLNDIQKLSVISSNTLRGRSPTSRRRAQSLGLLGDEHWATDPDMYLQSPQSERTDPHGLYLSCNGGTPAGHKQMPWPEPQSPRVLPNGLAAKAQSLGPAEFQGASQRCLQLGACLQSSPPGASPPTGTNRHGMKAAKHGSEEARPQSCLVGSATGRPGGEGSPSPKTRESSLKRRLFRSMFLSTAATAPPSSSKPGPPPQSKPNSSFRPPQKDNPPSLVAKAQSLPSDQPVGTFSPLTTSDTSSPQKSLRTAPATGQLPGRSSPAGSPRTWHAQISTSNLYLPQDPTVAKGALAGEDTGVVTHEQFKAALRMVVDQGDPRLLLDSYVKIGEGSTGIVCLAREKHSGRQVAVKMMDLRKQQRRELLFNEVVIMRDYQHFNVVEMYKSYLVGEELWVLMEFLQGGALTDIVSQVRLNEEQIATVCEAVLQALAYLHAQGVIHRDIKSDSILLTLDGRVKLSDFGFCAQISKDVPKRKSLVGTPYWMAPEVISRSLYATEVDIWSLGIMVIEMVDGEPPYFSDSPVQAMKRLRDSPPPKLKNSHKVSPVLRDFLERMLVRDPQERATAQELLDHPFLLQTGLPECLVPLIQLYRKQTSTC
# Experimental: as §1, §2
# IRAK3 = target: T7, IRAK3 (Homo sapiens, UniProt Q9Y616); conditions: 100% no effect, 0% complete tracer displacement, read-out: Tracer bound
# T7 construct: Full-length kinase ORF (Promega, Madison, WI, USA) cloned in frame with a NanoLuc-vector was transfected into HEK293T cells; host or cells: HEK293T
# Experimental: as §1, §2
# EPHA6 = target: T8, EPHA6 (Homo sapiens, UniProt Q9UF33); conditions: 100% no effect, 0% complete tracer displacement, read-out: Tracer bound
# T8 construct: Full-length kinase ORF (Promega, Madison, WI, USA) cloned in frame with a NanoLuc-vector was transfected into HEK293T cells; host or cells: HEK293T
# Experimental: as §1, §2
# PRKCQ-PMA = target: T9, PRKCQ-PMA (Homo sapiens, UniProt Q04759); conditions: 100% no effect, 0% complete tracer displacement, read-out: Tracer bound
# T9 construct: Full-length kinase ORF (Promega, Madison, WI, USA) cloned in frame with a NanoLuc-vector was transfected into HEK293T cells; host or cells: HEK293T
# Experimental: as §1, §2
# PRKACB = target: T10, PRKACB (Homo sapiens, UniProt P22694); conditions: 100% no effect, 0% complete tracer displacement, read-out: Tracer bound
# T10 construct: Full-length kinase ORF (Promega, Madison, WI, USA) cloned in frame with a NanoLuc-vector was transfected into HEK293T cells; host or cells: HEK293T
# Experimental: as §1, §2
# MAP3K9 = target: T11, MAP3K9 (Homo sapiens, UniProt P80192); conditions: 100% no effect, 0% complete tracer displacement, read-out: Tracer bound
# T11 construct: Full-length kinase ORF (Promega, Madison, WI, USA) cloned in frame with a NanoLuc-vector was transfected into HEK293T cells; host or cells: HEK293T
# Experimental: as §1, §2
# AURKA = target: T12, AURKA (Homo sapiens, UniProt O14965); conditions: 100% no effect, 0% complete tracer displacement, read-out: Tracer bound
# T12 construct: Full-length kinase ORF (Promega, Madison, WI, USA) cloned in frame with a NanoLuc-vector was transfected into HEK293T cells; host or cells: HEK293T
# T12 sequence (O14965 whole entry): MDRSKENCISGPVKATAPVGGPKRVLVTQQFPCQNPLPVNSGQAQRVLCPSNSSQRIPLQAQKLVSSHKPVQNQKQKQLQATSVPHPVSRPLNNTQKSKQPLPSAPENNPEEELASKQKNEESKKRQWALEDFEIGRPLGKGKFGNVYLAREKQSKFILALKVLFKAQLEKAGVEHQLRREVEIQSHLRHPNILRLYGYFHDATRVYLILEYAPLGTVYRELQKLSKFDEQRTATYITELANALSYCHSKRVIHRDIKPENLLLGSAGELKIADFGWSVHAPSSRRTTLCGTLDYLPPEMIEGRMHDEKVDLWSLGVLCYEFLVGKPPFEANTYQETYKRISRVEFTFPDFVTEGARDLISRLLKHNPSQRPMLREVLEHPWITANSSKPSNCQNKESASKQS
# Experimental: as §1, §2
# STK4 = target: T13, STK4 (Homo sapiens, UniProt Q13043); conditions: 1 µM; 100% no effect, 0% complete tracer displacement
# T13 construct: Full-length kinase ORF (Promega, Madison, WI, USA) cloned in frame with a NanoLuc-vector was transfected into HEK293T cells; host or cells: HEK293T
# T13 sequence (Q13043 whole entry): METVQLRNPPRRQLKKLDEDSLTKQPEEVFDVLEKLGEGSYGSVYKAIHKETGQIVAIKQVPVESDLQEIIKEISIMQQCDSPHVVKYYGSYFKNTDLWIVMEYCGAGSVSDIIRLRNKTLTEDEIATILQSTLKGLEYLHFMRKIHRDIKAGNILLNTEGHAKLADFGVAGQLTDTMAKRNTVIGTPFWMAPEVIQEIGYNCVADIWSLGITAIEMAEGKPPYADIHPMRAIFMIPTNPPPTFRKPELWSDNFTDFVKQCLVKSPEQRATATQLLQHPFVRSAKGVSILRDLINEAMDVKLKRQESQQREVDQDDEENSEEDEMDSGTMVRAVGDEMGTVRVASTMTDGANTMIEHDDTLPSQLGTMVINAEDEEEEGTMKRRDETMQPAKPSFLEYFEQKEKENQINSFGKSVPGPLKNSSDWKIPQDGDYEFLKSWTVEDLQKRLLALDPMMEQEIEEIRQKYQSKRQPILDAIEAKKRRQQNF
# Experimental: as §1, §2
# ULK2 = target: T14, ULK2 (Homo sapiens, UniProt Q8IYT8); conditions: 100% no effect, 0% complete tracer displacement, read-out: Tracer bound
# T14 construct: Full-length kinase ORF (Promega, Madison, WI, USA) cloned in frame with a NanoLuc-vector; host or cells: HEK293T
# Experimental: as §1, §2
# CHEK2 = target: T15, CHEK2 (Homo sapiens, UniProt O96017); conditions: 100% no effect, 0% complete tracer displacement, read-out: Tracer bound
# T15 construct: Full-length kinase ORF (Promega, Madison, WI, USA) cloned in frame with a NanoLuc-vector was transfected into HEK293T cells; host or cells: HEK293T
# Experimental: as §1, §2
# RIOK2 = target: T16, RIOK2 (Homo sapiens, UniProt Q9BVS4); conditions: 100% no effect, 0% complete tracer displacement, read-out: Tracer bound
# T16 construct: Full-length kinase ORF (Promega, Madison, WI, USA) cloned in frame with a NanoLuc-vector was transfected into HEK293T cells; host or cells: HEK293T
# Experimental: as §1, §2
# MAP4K5 = target: T17, MAP4K5 (Homo sapiens, UniProt Q9Y4K4); conditions: 100% no effect, 0% complete tracer displacement, read-out: Tracer bound
# T17 construct: Full-length kinase ORF (Promega, Madison, WI, USA) cloned in frame with a NanoLuc-vector was transfected into HEK293T cells; host or cells: HEK293T
# Experimental: as §1, §2
# NEK3 = target: T18, NEK3 (Homo sapiens, UniProt P51956); conditions: 100% no effect, 0% complete tracer displacement, read-out: Tracer bound
# T18 construct: Full-length kinase ORF (Promega, Madison, WI, USA) cloned in frame with a NanoLuc-vector was transfected into HEK293T cells; host or cells: HEK293T
# Experimental: as §1, §2
# JAK2 = target: T19, JAK2 (Homo sapiens, UniProt O60674); conditions: 1 µM; 100% no effect, 0% complete tracer displacement
# T19 construct: Full-length kinase ORF (Promega, Madison, WI, USA) cloned in frame with a NanoLuc-vector was transfected into HEK293T cells; host or cells: HEK293T
# Experimental: as §1, §2
# MAPK6 = target: T20, MAPK6 (Homo sapiens, UniProt Q16659); conditions: 100% no effect, 0% complete tracer displacement, read-out: Tracer bound
# T20 construct: Full-length kinase ORF (Promega, Madison, WI, USA) cloned in frame with a NanoLuc-vector was transfected into HEK293T cells; host or cells: HEK293T
# Experimental: as §1, §2
# BTK = target: T21, BTK (Homo sapiens, UniProt Q06187); conditions: 1 µM; 100% no effect, 0% complete tracer displacement
# T21 construct: Full-length kinase ORF (Promega, Madison, WI, USA) cloned in frame with a NanoLuc-vector was transfected into HEK293T cells; host or cells: HEK293T
# T21 sequence (Q06187 whole entry): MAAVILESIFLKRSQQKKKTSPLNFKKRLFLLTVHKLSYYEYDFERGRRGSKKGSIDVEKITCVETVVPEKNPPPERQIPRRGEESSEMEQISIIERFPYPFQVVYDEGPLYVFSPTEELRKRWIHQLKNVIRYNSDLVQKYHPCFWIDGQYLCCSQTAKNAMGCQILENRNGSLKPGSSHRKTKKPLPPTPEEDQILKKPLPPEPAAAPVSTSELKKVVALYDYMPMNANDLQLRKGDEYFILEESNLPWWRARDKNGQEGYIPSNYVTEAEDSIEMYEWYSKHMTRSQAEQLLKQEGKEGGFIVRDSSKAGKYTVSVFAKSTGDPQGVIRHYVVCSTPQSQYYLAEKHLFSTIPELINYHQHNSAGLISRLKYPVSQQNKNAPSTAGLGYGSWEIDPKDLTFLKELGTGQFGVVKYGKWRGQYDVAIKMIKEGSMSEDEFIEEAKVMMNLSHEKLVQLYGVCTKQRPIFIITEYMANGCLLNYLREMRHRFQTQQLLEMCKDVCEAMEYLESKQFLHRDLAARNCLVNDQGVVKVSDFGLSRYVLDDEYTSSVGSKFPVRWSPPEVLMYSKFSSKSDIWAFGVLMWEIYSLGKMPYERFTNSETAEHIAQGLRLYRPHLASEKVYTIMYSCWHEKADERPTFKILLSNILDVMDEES
# Experimental: as §1, §2
# DCLK3 = target: T22, DCLK3 (Homo sapiens, UniProt Q9C098); conditions: 100% no effect, 0% complete tracer displacement, read-out: Tracer bound
# T22 construct: Full-length kinase ORF (Promega, Madison, WI, USA) cloned in frame with a NanoLuc-vector was transfected into HEK293T cells; host or cells: HEK293T
# Experimental: as §1, §2
# PRKCE-PMA = target: T23, PRKCE-PMA (Homo sapiens, UniProt Q02156); conditions: 100% no effect, 0% complete tracer displacement, read-out: Tracer bound
# T23 construct: Full-length kinase ORF (Promega, Madison, WI, USA) cloned in frame with a NanoLuc-vector was transfected into HEK293T cells; host or cells: HEK293T
# Experimental: as §1, §2
# SRMS = target: T24, SRMS (Homo sapiens, UniProt Q9H3Y6); conditions: 100% no effect, 0% complete tracer displacement, read-out: Tracer bound
# T24 construct: Full-length kinase ORF (Promega, Madison, WI, USA) cloned in frame with a NanoLuc-vector was transfected into HEK293T cells; host or cells: HEK293T
# T24 sequence (Q9H3Y6 whole entry): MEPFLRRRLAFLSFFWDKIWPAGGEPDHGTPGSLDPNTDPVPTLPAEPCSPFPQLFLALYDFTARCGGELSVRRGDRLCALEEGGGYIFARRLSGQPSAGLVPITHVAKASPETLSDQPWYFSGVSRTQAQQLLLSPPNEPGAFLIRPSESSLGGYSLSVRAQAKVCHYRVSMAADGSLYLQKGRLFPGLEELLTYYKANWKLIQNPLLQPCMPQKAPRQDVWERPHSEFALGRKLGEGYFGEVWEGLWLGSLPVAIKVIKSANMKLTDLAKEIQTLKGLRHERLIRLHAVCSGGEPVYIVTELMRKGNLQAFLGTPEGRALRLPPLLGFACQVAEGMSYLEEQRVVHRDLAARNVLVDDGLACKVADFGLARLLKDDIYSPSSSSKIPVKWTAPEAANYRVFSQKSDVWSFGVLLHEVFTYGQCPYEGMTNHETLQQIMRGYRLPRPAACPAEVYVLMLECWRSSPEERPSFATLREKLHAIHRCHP
# Experimental: as §1, §2
# CAMK2A = target: T25, CAMK2A (Homo sapiens, UniProt Q9UQM7); conditions: 100% no effect, 0% complete tracer displacement, read-out: Tracer bound
# T25 construct: Full-length kinase ORF (Promega, Madison, WI, USA) cloned in frame with a NanoLuc-vector was transfected into HEK293T cells; host or cells: HEK293T
# T25 sequence (Q9UQM7 whole entry): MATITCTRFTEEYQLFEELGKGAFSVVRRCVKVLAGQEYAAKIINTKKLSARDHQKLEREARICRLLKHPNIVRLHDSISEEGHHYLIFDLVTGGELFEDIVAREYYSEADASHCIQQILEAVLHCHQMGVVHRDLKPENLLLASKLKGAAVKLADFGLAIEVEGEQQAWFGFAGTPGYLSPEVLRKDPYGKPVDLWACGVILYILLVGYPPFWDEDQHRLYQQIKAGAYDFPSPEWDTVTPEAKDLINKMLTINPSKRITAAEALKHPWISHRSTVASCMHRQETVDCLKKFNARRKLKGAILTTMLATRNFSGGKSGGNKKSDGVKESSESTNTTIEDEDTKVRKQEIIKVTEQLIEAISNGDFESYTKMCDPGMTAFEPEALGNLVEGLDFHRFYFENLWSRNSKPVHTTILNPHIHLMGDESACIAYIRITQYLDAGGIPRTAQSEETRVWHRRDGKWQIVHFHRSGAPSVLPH
# Experimental: as §1, §2
# STK36 = target: T26, STK36 (Homo sapiens, UniProt Q9NRP7); conditions: 100% no effect, 0% complete tracer displacement, read-out: Tracer bound
# T26 construct: Full-length kinase ORF (Promega, Madison, WI, USA) cloned in frame with a NanoLuc-vector was transfected into HEK293T cells; host or cells: HEK293T
# Experimental: as §1, §2
# HUNK = target: T27, HUNK (Homo sapiens, UniProt P57058); conditions: 100% no effect, 0% complete tracer displacement, read-out: Tracer bound
# T27 construct: Full-length kinase ORF (Promega, Madison, WI, USA) cloned in frame with a NanoLuc-vector was transfected into HEK293T cells; host or cells: HEK293T
# Experimental: as §1, §2
# CDK20-CCNH = target: T28, CDK20-CCNH (Homo sapiens, UniProt Q8IZL9); conditions: 100% no effect, 0% complete tracer displacement, read-out: Tracer bound
# T28 construct: Full-length kinase ORF (Promega, Madison, WI, USA) cloned in frame with a NanoLuc-vector was transfected into HEK293T cells; host or cells: HEK293T
# Experimental: as §1, §2
# TRKA = target: T29, TRKA (Homo sapiens, UniProt P04629); conditions: 100% no effect, 0% complete tracer displacement, read-out: Tracer bound
# T29 construct: Full-length kinase ORF (Promega, Madison, WI, USA) cloned in frame with a NanoLuc-vector; host or cells: HEK293T
# T29 sequence (P04629 33-796): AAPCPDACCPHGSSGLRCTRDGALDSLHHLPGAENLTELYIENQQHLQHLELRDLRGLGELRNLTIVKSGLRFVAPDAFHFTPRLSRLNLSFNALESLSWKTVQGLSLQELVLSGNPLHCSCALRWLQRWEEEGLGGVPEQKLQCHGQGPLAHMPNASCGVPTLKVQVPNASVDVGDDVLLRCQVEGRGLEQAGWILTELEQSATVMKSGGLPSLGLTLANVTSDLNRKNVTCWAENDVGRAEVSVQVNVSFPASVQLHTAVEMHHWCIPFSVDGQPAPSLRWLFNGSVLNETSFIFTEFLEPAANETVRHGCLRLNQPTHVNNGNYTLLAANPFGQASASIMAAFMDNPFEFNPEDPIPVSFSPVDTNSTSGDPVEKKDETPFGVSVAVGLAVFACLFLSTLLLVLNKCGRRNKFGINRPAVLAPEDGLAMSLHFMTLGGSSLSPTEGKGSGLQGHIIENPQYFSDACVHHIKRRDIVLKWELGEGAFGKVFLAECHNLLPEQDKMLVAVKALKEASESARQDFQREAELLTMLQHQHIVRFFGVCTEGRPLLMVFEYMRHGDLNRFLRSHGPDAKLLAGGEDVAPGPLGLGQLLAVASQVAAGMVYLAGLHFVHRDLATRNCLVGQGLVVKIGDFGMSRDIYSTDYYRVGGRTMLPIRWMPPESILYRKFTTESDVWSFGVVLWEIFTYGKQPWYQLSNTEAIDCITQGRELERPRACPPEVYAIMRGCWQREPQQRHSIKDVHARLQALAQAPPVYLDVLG
# Experimental: as §1, §2
# RET = target: T30, RET (Homo sapiens, UniProt P07949); conditions: 100% no effect, 0% complete tracer displacement, read-out: Tracer bound
# T30 construct: Full-length kinase ORF (Promega, Madison, WI, USA) cloned in frame with a NanoLuc-vector was transfected into HEK293T cells; host or cells: HEK293T
# T30 sequence (P07949 29-1114): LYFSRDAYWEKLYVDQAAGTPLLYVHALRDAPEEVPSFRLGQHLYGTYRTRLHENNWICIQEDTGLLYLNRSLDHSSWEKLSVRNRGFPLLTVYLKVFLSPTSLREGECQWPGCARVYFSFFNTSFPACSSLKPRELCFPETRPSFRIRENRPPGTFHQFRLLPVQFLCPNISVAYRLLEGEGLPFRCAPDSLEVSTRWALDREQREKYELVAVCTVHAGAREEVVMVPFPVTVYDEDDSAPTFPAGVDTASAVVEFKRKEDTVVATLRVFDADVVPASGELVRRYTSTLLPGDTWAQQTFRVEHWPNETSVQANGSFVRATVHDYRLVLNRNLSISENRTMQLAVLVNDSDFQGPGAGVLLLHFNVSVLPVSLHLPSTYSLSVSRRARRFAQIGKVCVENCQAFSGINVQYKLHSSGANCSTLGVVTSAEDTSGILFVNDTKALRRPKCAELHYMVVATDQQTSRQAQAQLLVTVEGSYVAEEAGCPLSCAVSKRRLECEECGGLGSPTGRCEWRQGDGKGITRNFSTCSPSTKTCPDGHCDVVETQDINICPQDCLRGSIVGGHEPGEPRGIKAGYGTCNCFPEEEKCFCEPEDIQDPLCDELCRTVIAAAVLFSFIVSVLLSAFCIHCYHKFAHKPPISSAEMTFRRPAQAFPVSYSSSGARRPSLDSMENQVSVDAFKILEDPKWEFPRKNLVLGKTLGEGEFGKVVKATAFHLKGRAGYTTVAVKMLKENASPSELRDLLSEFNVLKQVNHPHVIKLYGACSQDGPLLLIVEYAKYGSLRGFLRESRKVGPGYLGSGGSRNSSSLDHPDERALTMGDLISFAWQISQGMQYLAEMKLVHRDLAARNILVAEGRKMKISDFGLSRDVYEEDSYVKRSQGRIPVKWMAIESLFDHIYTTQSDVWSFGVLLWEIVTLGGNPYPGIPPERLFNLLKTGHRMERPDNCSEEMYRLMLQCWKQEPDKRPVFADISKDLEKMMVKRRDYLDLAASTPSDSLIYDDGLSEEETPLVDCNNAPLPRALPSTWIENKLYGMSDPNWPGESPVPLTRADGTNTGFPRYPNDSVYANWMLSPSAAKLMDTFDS
# Experimental: as §1, §2
smiles,measurement,setting,value
"CNC(=O)c1cc(Oc2ccc(NC(=O)Nc3cc(C(C)(C)C)on3)cc2)ccn1 [MA68, reference compound]",Tracer bound,SIK3,113.2%
same,remaining activity at 1 µM,MAP4K1,101%
same,remaining activity at 1 µM,TNK1,114%
same,remaining activity at 1 µM,PLK4,107%
same,remaining activity at 1 µM,FGFR1,69.2%
same,remaining activity at 1 µM,PAK6,116%
same,remaining activity at 1 µM,IRAK3,120%
same,remaining activity at 1 µM,EPHA6,23.6%
same,remaining activity at 1 µM,PRKCQ-PMA,108%
same,remaining activity at 1 µM,PRKACB,99.6%
same,remaining activity at 1 µM,MAP3K9,111%
same,remaining activity at 1 µM,AURKA,120%
same,Tracer bound,STK4,98.8%
same,remaining activity at 1 µM,ULK2,91.7%
same,remaining activity at 1 µM,CHEK2,119%
same,remaining activity at 1 µM,RIOK2,109%
same,remaining activity at 1 µM,MAP4K5,96.3%
same,remaining activity at 1 µM,NEK3,120%
same,Tracer bound,JAK2,110.6%
same,remaining activity at 1 µM,MAPK6,113%
same,Tracer bound,BTK,120.0%
same,remaining activity at 1 µM,DCLK3,113%
same,remaining activity at 1 µM,PRKCE-PMA,76.2%
same,remaining activity at 1 µM,SRMS,94.4%
same,remaining activity at 1 µM,CAMK2A,102%
same,remaining activity at 1 µM,STK36,108%
same,remaining activity at 1 µM,HUNK,88.2%
same,remaining activity at 1 µM,CDK20-CCNH,93.3%
same,remaining activity at 1 µM,TRKA,28.6%
same,remaining activity at 1 µM,RET,3.8%
